Reference: DBAASP
Values after ≈ are worked out from the molar mass of the structure shown.

Experiments:
Assay in all cases: ≥ marks a high value that may be exact or a test limit, other limits are often not marked, values filed in µg/mL are converted to µM
[1] = test system: Cronobacter sakazakii DPC 6440
[2] = test system: Listeria monocytogenes LO28
[3] = test system: Salmonella enterica subsp. enterica serovar Typhi DMST 22842
[4] = test system: Staphylococcus aureus ATCC 25923
[5] = test system: Staphylococcus epidermidis ATCC 12228
Vibrio cholerae non-O139 = test system: Vibrio cholerae non-O139
Vibrio cholerae non-O1 = test system: Vibrio cholerae non-O1
[6] = test system: Escherichia coli ATCC 35218
[7] = test system: Pseudomonas aeruginosa ATCC 27853
[8] = test system: Staphylococcus aureus ATCC 25325
[9] = test system: Candida albicans ATCC 200955
[10] = test system: Enterococcus faecium ATCC 700221
[11] = test system: Escherichia coli ATCC 25922
[12] = test system: Staphylococcus aureus ATCC 33591
[13] = test system: Candida albicans ATCC 90028
Candida krusei ATCC 6258 = test system: Candida krusei ATCC 6258
[14] = test system: Candida parapsilosis ATCC 22019
[15] = test system: Cryptococcus neoformans ATCC 90012
[16] = test system: Staphylococcus aureus ATCC 25023
[17] = test system: Micrococcus luteus BCRC 11034
Pseudomonas aeruginosa = test system: Pseudomonas aeruginosa
[18] = test system: Staphylococcus aureus BCRC 10780
Staphylococcus aureus = test system: Staphylococcus aureus
[19] = test system: Staphylococcus sp. BCRC 10451
Streptococcus agalactiae = test system: Streptococcus agalactiae
[20] = test system: Streptococcus pneumoniae BCRC 10794
Vibrio alginolyticus = test system: Vibrio alginolyticus
[21] = test system: Vibrio harveyi BCRC 13812
Vibrio vulnificus 204 = test system: Vibrio vulnificus 204
Bacillus subtilis PS832 = test system: Bacillus subtilis PS832
Escherichia coli DL7 = test system: Escherichia coli DL7
[22] = test system: Klebsiella aerogenes ATCC 13048

Structure (SMILES): CC[C@H](C)[C@H](NC(=O)[C@@H](N)Cc1c[nH]c2ccccc12)C(=O)N[C@@H](CCC(N)=O)C(=O)N1CCC[C@H]1C(=O)N[C@@H](CCCCN)C(=O)N[C@H](C(=O)N[C@@H](CCCCN)C(=O)N[C@H](C(=O)N[C@H](C(=O)N1CCC[C@H]1C(=O)N[C@@H](Cc1ccc(O)cc1)C(=O)N[C@@H](C)C(=O)N[C@@H](CCCN=C(N)N)C(=O)N[C@@H](Cc1ccc(O)cc1)C(=O)N[C@@H](CC(C)C)C(=O)O)[C@@H](C)CC)C(C)C)[C@@H](C)O [WIQPKTKVIPYARYL]
- MIC [1]: ≥ 39.1 µM
- MIC [2]: 19.5 µM (≈ 36.6 µg/mL)

Structure (SMILES): NC(=O)[C@H](Cc1c[nH]c2ccccc12)NC(=O)[C@H](Cc1c[nH]c2ccccc12)NC(=O)[C@H](Cc1c[nH]c2ccccc12)NC(=O)[C@H](CCCN=C(N)N)NC(=O)[C@H](CCCN=C(N)N)NC(=O)[C@H](Cc1c[nH]c2ccccc12)NC(=O)[C@H](Cc1c[nH]c2ccccc12)NC(=O)[C@H](CCCN=C(N)N)NC(=O)[C@H](Cc1c[nH]c2ccccc12)NC(=O)[C@H](Cc1c[nH]c2ccccc12)NC(=O)[C@@H](N)CCCN=C(N)N [RWWRWWRRWWW]
- MIC [3]: ≥ 46.8 µM
- MIC [4]: > 46.8 µM
- MIC [5]: > 46.8 µM
- MIC (Vibrio cholerae non-O139): ≥ 46.8 µM
- MIC (Vibrio cholerae non-O1): ≥ 46.8 µM

Structure (SMILES): CC(C)C[C@H](NC(=O)[C@H](C)NC(=O)[C@H](C)NC(=O)[C@H](CCCCN)NC(=O)CNC(=O)[C@@H](NC(=O)[C@H](Cc1cnc[nH]1)NC(=O)[C@H](CCCCN)NC(=O)CNC(=O)[C@@H](NC(=O)[C@H](Cc1cnc[nH]1)NC(=O)[C@H](C)NC(=O)[C@H](C)NC(=O)[C@H](CCCCN)NC(=O)[C@@H](N)CCCCN)C(C)C)C(C)C)C(=O)O [KKAAHVGKHVGKAAL]
- MIC [6]: 16.1 µM (≈ 24.4 µg/mL)
- MIC [7]: 29.5 µM (≈ 44.7 µg/mL)
- MIC [8]: 20.2 µM (≈ 30.6 µg/mL)

Structure (SMILES): CC[C@H](C)[C@H](NC(=O)[C@H](CCCCN)NC(=O)[C@H](CCCCN)NC(=O)[C@H](CC(C)C)NC(=O)[C@H](CC(C)C)NC(=O)CN)C(=O)N[C@@H](CCCCN)C(=O)N[C@@H](CCCCN)C(=O)N[C@@H](CC(C)C)C(=O)N[C@@H](CC(C)C)C(N)=O [GLLKKIKKLL]
- MIC [9]: 28.4 µM (≈ 32.7 µg/mL)
- MIC [10]: ≥ 56.9 µM
- MIC [11]: 25 µM (≈ 28.8 µg/mL)
- MIC [7]: 28.4 µM (≈ 32.7 µg/mL)
- MIC [12]: ≥ 256 µM

Structure (SMILES): CC[C@H](C)[C@H](NC(=O)[C@H](Cc1ccccc1)NC(=O)[C@H](CC(N)=O)NC(=O)[C@H](CCCCN)NC(=O)[C@H](C)NC(=O)[C@@H](NC(=O)[C@H](CC(N)=O)NC(=O)[C@H](Cc1ccccc1)NC(=O)[C@H](C)NC(=O)[C@H](C)NC(=O)[C@H](CCCCN)NC(=O)CNC(=O)[C@@H](NC(=O)[C@H](CCCCN)NC(=O)[C@H](CCCCN)NC(=O)[C@H](C)NC(=O)[C@@H](NC(=O)[C@H](CC(=O)O)NC(=O)[C@H](CC(C)C)NC(=O)[C@H](Cc1c[nH]c2ccccc12)NC(=O)CN)C(C)C)[C@@H](C)CC)C(C)C)C(N)=O [GWLDVAKKIGKAAFNVAKNFI]
- MIC [13]: 8 µM (≈ 18.3 µg/mL)
- MIC (Candida krusei ATCC 6258): 8 µM (≈ 18.3 µg/mL)
- MIC [14]: 4 µM (≈ 9.16 µg/mL)
- MIC [15]: 8 µM (≈ 18.3 µg/mL)
- MIC [11]: 4 µM (≈ 9.16 µg/mL)
- MIC [7]: 8 µM (≈ 18.3 µg/mL)
- MIC [4]: 1 µM (≈ 2.29 µg/mL)

Structure (SMILES): CC(C)C[C@H](NC(=O)[C@H](CCCN=C(N)N)NC(=O)[C@H](CC(C)C)NC(=O)[C@H](CC(C)C)NC(=O)[C@H](CC(C)C)NC(=O)[C@H](CC(C)C)NC(=O)[C@H](CC(C)C)NC(=O)[C@H](CCCCN)NC(=O)[C@H](CCCN=C(N)N)NC(=O)[C@@H](N)CC(C)C)C(N)=O [LRKLLLLLRL]
- MIC [16]: 25.6 µM (≈ 32 µg/mL)

Structure (SMILES): CC[C@H](C)[C@H](NC(=O)[C@H](CCCCN)NC(=O)[C@@H]1CCCN1C(=O)[C@@H](NC(=O)[C@H](CC(C)C)NC(=O)[C@H](C)NC(=O)[C@H](Cc1ccccc1)NC(=O)[C@H](Cc1ccccc1)NC(=O)CNC(C)=O)[C@@H](C)CC)C(=O)N[C@H](C(=O)N[C@@H](CO)C(=O)N[C@@H](CO)C(=O)N1CCC[C@H]1C(=O)N[C@@H](CC(C)C)C(=O)N[C@@H](Cc1ccccc1)C(=O)N[C@@H](CCCCN)C(=O)N[C@H](C(=O)N[C@@H](CC(C)C)C(=O)N[C@@H](CC(C)C)C(=O)N[C@@H](CO)C(=O)N[C@@H](C)C(=O)N[C@H](C(=O)NCC(=O)N[C@@H](CO)C(=O)N[C@@H](C)C(=O)N[C@@H](CC(C)C)C(=O)N[C@@H](CO)C(N)=O)C(C)C)[C@@H](C)O)[C@@H](C)CC [GFFALIPKIISSPLFKTLLSAVGSALS]
- MIC [17]: 9 µM (≈ 25.4 µg/mL)
- MIC (Pseudomonas aeruginosa): 4.5 µM (≈ 12.7 µg/mL)
- MIC [18]: 18 µM (≈ 50.7 µg/mL)
- MIC (Staphylococcus aureus): 4.5 µM (≈ 12.7 µg/mL)
- MIC [19]: 2.25 µM (≈ 6.34 µg/mL)
- MIC (Streptococcus agalactiae): 18 µM (≈ 50.7 µg/mL)
- MIC [20]: 18 µM (≈ 50.7 µg/mL)
- MIC (Vibrio alginolyticus): 4.5 µM (≈ 12.7 µg/mL)
- MIC [21]: 4.5 µM (≈ 12.7 µg/mL)
- MIC (Vibrio vulnificus 204): 18 µM (≈ 50.7 µg/mL)

Structure (SMILES): CC[C@H](C)[C@H](NC(=O)[C@H](CCCN=C(N)N)NC(=O)[C@H](CCCCN)NC(=O)[C@H](CC(C)C)NC(=O)[C@H](CC(C)C)NC(=O)CNC(=O)[C@H](Cc1cnc[nH]1)NC(=O)CNC(=O)CN)C(=O)N[C@@H](CCCCN)C(=O)N[C@H](C(=O)N[C@@H](CC(C)C)C(=O)N[C@@H](CC(C)C)C(N)=O)[C@@H](C)O [GGHGLLKRIKTLL]
- MIC (Bacillus subtilis PS832): 2 µM (≈ 2.81 µg/mL)
- MIC (Escherichia coli DL7): 4 µM (≈ 5.62 µg/mL)
- MIC [22]: ≥ 32 µM
- MIC [5]: 8 µM (≈ 11.2 µg/mL)
